Test results from US20210046162A1, “Teriparatide Use for Bone Stress Fractures/Reactions” (University of South Carolina, priority 2019, published 2021).
Where two headings read alike, the source gives them in different places. Blank lines part the entries; values can stand above or below the compound they belong to.

Columns and labels:
[1] = tested on: stress fractures (DTSFs); assay: Teriparatide therapy of stress fractures in NCAA collegiate athletes (FIG. 8); type: in vivo, humans; conditions: 20 mcg dose, at least 28 days
Description: The current disclosure has administered teriparatide at the 20 mcg dose to young adult NCAA collegiate athletes who have DTSFs. Our promising clinical findings, see, e.g., FIG. 8, have led us to hypothesize that teriparatide will have a positive effect on bone healing and return to duty among service members with DTSFs. While a dosage of 20 mcg has been found effective, other dosages are considered within the scope of this application such as ranges from 5-50 mcg, 10-40 mcg, 15-35 mcg, 20-30 mcg, etc. In one embodiment, the preferred range is 10 mcg-40 mcg.
The PTH peptide can also be administered in conjunction with other therapeutic agents such as bisphonates, calcium, vitamin D, estrogen or estrogen-receptor binding compounds, selective estrogen receptor modulators (SERMs), bone morphogenic proteins and/or calcitonin. In one embodiment, 500 mg calcium may be administered daily for the duration of treatment with teriparatide. Vitamin D may also be administered along with teriparatide. Unless a patient is hypercalemic, defined as a total serum calcium concentration >10.4 mg/dL (>2.60 mmol/L) or ionized serum calcium >5.2 mg/dL (>1.30 mmol/L), calcium would be used as part of the treatment regimen. For patients with low vitamin D concentrations, defined as a 25(OH)D concentration of 12 to 20 ng/mL (30 to 50 nmol/L), Vitamin D may also be administered during treatment descried herein. […]

[2] = in vivo, sc
Description: (§1) As used herein “peak concentration (CMAX) of PTH peptide in a blood plasma”, “area under concentration vs. time curve (AUC) of PTH peptide in a blood plasma”, “time to maximal plasma concentration (tMAX) of PTH peptide in a blood plasma” are pharmacokinetic parameters known to one skilled in the art. […] The “concentration vs. time curve” measures the concentration of PTH peptide in a blood serum of a subject vs. time after administration of a dosage of PTH peptide to the subject either by intranasal, intramuscular, subcutaneous, or other parenteral route of administration. “CMAX” is the maximum concentration of PTH peptide in the blood serum of a subject following a single dosage of PTH peptide to the subject. “TMAX” is the time to reach maximum concentration of PTH peptide in a blood serum of a subject following administration of a single dosage of PTH peptide to the subject. […] Mean changes of teriparatide acetate (in picograms per liter) in plasma after a single subcutaneous injection of teriparatide (filled circle 56.5 μg, filled triangle 28.2 μg) to 360 min. Bars represent standard deviation.

[3] = cited from earlier work; for bioavailability: after subcutaneous injection
[4] = tested on: osteosarcoma; conditions: over 16,000 unique patients, post-market analysis; cited from earlier work
[5] = tested on: tibial fractures; conditions: rats, after 20 and 40 days of healing, cited from earlier work
[6] = tested on: distal radial fracture; conditions: cited from earlier work; for time to radiographic healing: placebo 9.1 weeks
[7] = Plasma teriparatide concentrations after a single subcutaneous injection (FIG. 9); conditions: sc
Description: as §1

AUCinf ([2]; 28.2 ug): 28.07 ± 2.47 ng/min/mL
AUClast ([2]; 28.2 ug): 25.84 ± 3.18 ng/min/mL
AUCinf ([2]; 56.5 ug): 52.73 ± 10.03 ng/min/mL
AUClast ([2]; 56.5 ug): 49.91 ± 11.33 ng/min/mL
time after the injection at which Cmax was achieved ([2]; 56.5 ug): 1 h
Cmax ([7]; 28.2 ug): 0.193 ± 0.0353 ng/mL
Tmax ([7]; 28.2 ug): 0.9 h
half-life ([7]; 28.2 ug): 1.16 ± 0.217 h
Cmax ([7]; 56.5 ug): 0.338 ± 0.134 ng/mL
Tmax ([7]; 56.5 ug): 0.875 h
half-life ([7]; 56.5 ug): 1.29 ± 0.587 h
Compound: CC[C@H](C)[C@H](NC(=O)[C@H](CCC(=O)O)NC(=O)[C@H](CO)NC(=O)[C@@H](NC(=O)[C@@H](N)CO)C(C)C)C(=O)N[C@@H](CCC(N)=O)C(=O)N[C@@H](CC(C)C)C(=O)N[C@@H](CCSC)C(=O)N[C@@H](Cc1cnc[nH]1)C(=O)N[C@@H](CC(N)=O)C(=O)N[C@@H](CC(C)C)C(=O)NCC(=O)N[C@@H](CCCCN)C(=O)N[C@@H](Cc1cnc[nH]1)C(=O)N[C@@H](CC(C)C)C(=O)N[C@@H](CC(N)=O)C(=O)N[C@@H](CO)C(=O)N[C@@H](CCSC)C(=O)N[C@@H](CCC(=O)O)C(=O)N[C@@H](CCCN=C(N)N)C(=O)N[C@H](C(=O)N[C@@H](CCC(=O)O)C(=O)N[C@@H](Cc1c[nH]c2ccccc12)C(=O)N[C@@H](CC(C)C)C(=O)N[C@@H](CCCN=C(N)N)C(=O)N[C@@H](CCCCN)C(=O)N[C@@H](CCCCN)C(=O)N[C@@H](CC(C)C)C(=O)N[C@@H](CCC(N)=O)C(=O)N[C@@H](CC(=O)O)C(=O)N[C@H](C(=O)N[C@@H](Cc1cnc[nH]1)C(=O)N[C@@H](CC(N)=O)C(=O)N[C@@H](Cc1ccccc1)C(=O)O)C(C)C)C(C)C [teriparatide]
healing of the subjects' stress fractures [1]: resulted in healing
bioavailability [3]: 95%
Absolute bioavailability ([3]; subcutaneous injection): 95%
half-life ([3]; subcutaneous injection): approximately 1 hour
half-life after subcutaneous injection ([3]; subcutaneous injection): approximately 1 hours
time to peak concentrations ([3]; subcutaneous injection): 30 min
reported cases of osteosarcoma in humans [4]: have not been any reported cases
mechanical strength of fractures ([5]; 60 and 200 kg/day once daily): increased
callus quantity ([5]; once daily): increased
time to healing compared with placebo group ([6]; 20 mcg daily for 8 weeks): shorter
time to radiographic healing ([6]; 20 mcg daily for 8 weeks): 7.4 weeks
improvement in healing time compared with placebo ([6]; 40 mcg daily for 8 weeks): not a statistically significant improvement
time to radiographic healing ([6]; 40 mcg daily for 8 weeks): 8.8 weeks

Compound: PTH 1-84: full-length human parathyroid hormone, an 84 amino acids peptide with N-terminal and C-terminal regions
bioavailability [3]: 55%
duration of action ([3]; compared with PTH 1-34): longer
half-life after subcutaneous injection ([3]; subcutaneous injection): approximately 2.5 hours
